Series [1] in a line: New Trypsin Hyperalgesic Assay (NTHA). Format: in vivo. As to conditions: po, 1 h, read-out: ED50, analgesic activity, NTHA (Rat): dose which reduced the average pain score 50% relative to solvent control. How it is done: A sensitive mild analgesic assay is the New Trypsin Hyperalgesic Assay (NTHA). At the start of the assay 250 μg of trypsin is injected in one hindlimb of each rat. Thirty minutes later each drug is given per os. One hour after the drugs are given the sensitivity of each rat to a 3.0 kg force is determined.

Series [2] is described as follows: Yeast-induced hyperthermia assay, antipyretic activity. Format: in vivo. Particulars: po; rat, n exceeds 10. The source says: The Yeast-induced hyperthermia assay was used according to the procedure described by Khalili-Varasteh et al. in Arch. Int. Pharmacodyn.
Series [3] can be described thus: Acetic Acid Writhing Test (AAWT), rat. The series is classed as in vivo. As to conditions: po, read-out: ED50, analgesic activity, AAWT (Rat). The source says:
(§1) Using the procedure described by Koster et al. in Fed. […] 26, Anti-inflammatory Drugs, Ed.
A general note: In writhing tests, fewer writhes than in controls are read as antinociception.

A short description of series [4]: Carrageenin Pleurisy Assay (CPA), acute anti-inflammatory activity. As to conditions: po, read-out: ED50, acute anti-inflammatory activity (CPA): dose required to reduce the 3 hour exudate volume by 50%. The series is classed as in vivo, rat. The procedure:
Following the procedure described by Vinegar et al. in Proc. Soc. Exp. Biol. Med. 151, 5546, (1976), the acute anti-inflammatory activity of the Compound A (defined in Example 16, vide supra) was compared with that of known anti-inflammatory drugs, i.e., aspirin an acetaminophen in the rat. The average 3 hour exudate volume for each drug treated group was determined and the % inhibition relative to a solvent control group calculated, the ED50 being the dose required to reduce the 3 hour exudate volume by 50%.

A short description of series [5]: Acetic Acid Writhing Test (AAWT), mouse. Format: in vivo. Particulars: po, read-out: ED50, analgesic activity, AAWT (Mouse).
From the text: as §1

Series [6] in a line: Toxicity (LD50). Particulars: rat, in vivo; Charles River CD rats, males and females.
Where [7] appears, read: rat, p.o., 250 μg trypsin in one hindlimb, 3.0 kg force one hour after drug, n exceeds 10.

Some results are limits rather than exact numbers.

As usually defined, the ED50 is the dose that gives a 50% effect, or the effect in half of the subjects. Regarding `CC(=O)Oc1ccccc1C(=O)O` [Aspirin], the ED50 in series [1] (Rattus norvegicus) turned out to be 14 ± 2.7 mg/kg; in series [2], 50 ± 8.1 mg/kg; in series [3] (Rattus norvegicus) it was 137 ± 16.9 mg/kg; in series [4] (Rattus norvegicus, 3 h) it was 28 ± 3.2 mg/kg; in series [5] (Mus musculus) it was 21 ± 3.4 mg/kg.
Usually LD50 stands for the dose at which mortality reaches 50%. A lower LD50 goes with greater toxicity. Turning to `OC[C@H]1O[C@@H](n2cnc3c(Nc4ccccc4)ccnc32)[C@H](O)[C@@H]1O` [Compound A, 7-anilino-3-β-D-ribofuranosyl-3H-imidazo[4,5-b]pyridine], the ED50 in series [1] (setting [7]) amounted to 0.1 ± 0.03 mg/kg; in series [2], 0.65 ± 0.06 mg/kg; in series [3] (rat, p.o., n exceeds 10) it was 0.74 ± 0.093 mg/kg; in series [4] (rat, p.o., 3 hour exudate volume, n exceeds 10), 0.24 ± 0.063 mg/kg; in series [5] (mouse, p.o., n exceeds 10), 0.33 ± 0.038 mg/kg. Further, the LD50 in series [6] was greater than 100 mg/kg.
On to `CC(=O)Nc1ccc(O)cc1` [Acetaminophen], for which the ED50 came out at 13 ± 1.7 mg/kg in series [1] (setting [7]) and 72 ± 8.6 mg/kg in series [2].

The record behind these values is patent publication US4780452A, “F-substituted-3-β-D-ribofuranosyl-3H-imidazo[4,5-b]pyridines and pharmaceutical compositions thereof” (Burroughs Wellcome Co., priority 1986, dated 1988).
